Results reported in patent US11306078B2, “Piperidine CXCR7 receptor modulators” (IDORSIA PHARMACEUTICALS LTD., priority 2016, dated 2022).

target: human chemokine receptor CXCR7 (Homo sapiens (Human), UniProt P25106); test: Tango CXCR7-bla U2OS beta-arrestin recruitment assay (beta-lactamase reporter, FRET), antagonism of CXCL12/SDF1-α; type: cell-based; details: antagonistic effect on CXCR7; Tango CXCR7-bla U2OS cells, CXCL12/SDF1-α at its EC80;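 further: compounds preincubated 15 min before CXCL12 addition, then 22 h at 37 °C, FRET emission ratio read with CCF4-AM substrate after 2 h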
Sequence (P25106 whole entry): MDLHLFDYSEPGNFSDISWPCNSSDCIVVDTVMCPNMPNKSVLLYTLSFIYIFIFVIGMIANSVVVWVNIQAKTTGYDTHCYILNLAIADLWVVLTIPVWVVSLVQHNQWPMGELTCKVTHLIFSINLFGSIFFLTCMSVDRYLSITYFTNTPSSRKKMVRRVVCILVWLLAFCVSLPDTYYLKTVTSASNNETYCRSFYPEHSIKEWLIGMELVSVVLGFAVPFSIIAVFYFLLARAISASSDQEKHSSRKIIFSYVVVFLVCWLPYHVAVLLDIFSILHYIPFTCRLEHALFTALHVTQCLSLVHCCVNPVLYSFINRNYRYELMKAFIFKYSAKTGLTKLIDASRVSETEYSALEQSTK

Row | IC50 | SMILES
1 | 564 nM | O=C(N[C@@H]1CCN(C2CCCCC2)C[C@H]1C(=O)NC1CCCC1)c1cc(-c2ccc(F)cc2F)on1 (racemic) [Example 1.003, rac-(3R*,4R*)-1-Cyclohexyl-4-{[5-(2,4-difluoro-phenyl)-isoxazole-3-carbonyl]-amino}-piperidine-3-carboxylic acid cyclopentylamide]
2 | 198 nM | CN(CCO)C(=O)[C@@H]1CN(C2CCCCC2)CC[C@H]1NC(=O)c1cc(-c2ccc(F)cc2F)on1 (racemic) [Example 1.005, rac-(3R*,4R*)-1-Cyclohexyl-4-{[5-(2,4-difluoro-phenyl)-isoxazole-3-carbonyl]-amino}-piperidine-3-carboxylic acid (2-hydroxy-ethyl)-methyl-amide]
3 | 414 nM | COCCNC(=O)[C@@H]1CN(C2CCCCC2)CC[C@H]1NC(=O)c1cc(-c2ccc(F)cc2F)on1 (racemic) [Example 1.006, rac-(3R*,4R*)-1-Cyclohexyl-4-{[5-(2,4-difluoro-phenyl)-isoxazole-3-carbonyl]-amino}-piperidine-3-carboxylic acid (2-methoxy-ethyl)-amide]
4 | 780 nM | CC(C)CNC(=O)[C@@H]1CN(C2CCCCC2)CC[C@H]1NC(=O)c1cc(-c2ccc(F)cc2F)on1 (racemic) [Example 1.007, rac-(3R*,4R*)-1-Cyclohexyl-4-{[5-(2,4-difluoro-phenyl)-isoxazole-3-carbonyl]-amino}-piperidine-3-carboxylic acid isobutyl-amide]
5 | 394 nM | CC(C)NC(=O)[C@@H]1CN(C2CCCCC2)CC[C@H]1NC(=O)c1cc(-c2ccc(F)cc2F)on1 (racemic) [Example 1.008, rac-(3R*,4R*)-1-Cyclohexyl-4-{[5-(2,4-difluoro-phenyl)-isoxazole-3-carbonyl]-amino}-piperidine-3-carboxylic acid isopropylamide]
6 | 282 nM | O=C(N[C@@H]1CCN(C2CCCCC2)C[C@H]1C(=O)NCCF)c1cc(-c2ccc(F)cc2F)on1 (racemic) [Example 1.011, rac-(3R*,4R*)-1-Cyclohexyl-4-{[5-(2,4-difluoro-phenyl)-isoxazole-3-carbonyl]-amino}-piperidine-3-carboxylic acid (2-fluoro-ethyl)-amide]
7 | 58 nM | CCNC(=O)[C@@H]1CN(C2CCCCC2)CC[C@H]1NC(=O)c1cc(-c2ccc(F)cc2F)on1 (racemic) [Example 1.012, rac-(3R*,4R*)-1-Cyclohexyl-4-{[5-(2,4-difluoro-phenyl)-isoxazole-3-carbonyl]-amino}-piperidine-3-carboxylic acid ethylamide]
8 | 238 nM | CN(C(=O)[C@@H]1CN(C2CCCCC2)CC[C@H]1NC(=O)c1cc(-c2ccc(F)cc2F)on1)C1CC1 (racemic) [Example 1.013, rac-(3R*,4R*)-1-Cyclohexyl-4-{[5-(2,4-difluoro-phenyl)-isoxazole-3-carbonyl]-amino}-piperidine-3-carboxylic acid cyclopropyl-methyl-amide]
9 | 289 nM | NC(=O)CNC(=O)[C@@H]1CN(C2CCCCC2)CC[C@H]1NC(=O)c1cc(-c2ccc(F)cc2F)on1 (racemic) [Example 1.014, rac-(3R*,4R*)-1-Cyclohexyl-4-{[5-(2,4-difluoro-phenyl)-isoxazole-3-carbonyl]-amino}-piperidine-3-carboxylic acid carbamoylmethyl-amide]
10 | 275 nM | O=C(N[C@@H]1CCN(C2CCCCC2)C[C@H]1C(=O)N1CCOCC1)c1cc(-c2ccc(F)cc2F)on1 (racemic) [Example 1.016, rac-5-(2,4-Difluoro-phenyl)-isoxazole-3-carboxylic acid [(3R*,4R*)-1-cyclohexyl-3-(morpholine-4-carbonyl)-piperidin-4-yl]-amide]
11 | 489 nM | CC(C)N(C)C(=O)[C@@H]1CN(C2CCCCC2)CC[C@H]1NC(=O)c1cc(-c2ccc(F)cc2F)on1 (racemic) [Example 1.017, rac-(3R*,4R*)-1-Cyclohexyl-4-{[5-(2,4-difluoro-phenyl)-isoxazole-3-carbonyl]-amino}-piperidine-3-carboxylic acid isopropyl-methyl-amide]
12 | 317 nM | CN(C)CCN(C)C(=O)[C@@H]1CN(C2CCCCC2)CC[C@H]1NC(=O)c1cc(-c2ccc(F)cc2F)on1 (racemic) [Example 1.018, rac-(3R*,4R*)-1-Cyclohexyl-4-{[5-(2,4-difluoro-phenyl)-isoxazole-3-carbonyl]-amino}-piperidine-3-carboxylic acid (2-dimethylamino-ethyl)-methyl-amide]
13 | 145 nM | CCOCCN(C)C(=O)[C@@H]1CN(C2CCCCC2)CC[C@H]1NC(=O)c1cc(-c2ccc(F)cc2F)on1 (racemic) [Example 1.019, rac-(3R*,4R*)-1-Cyclohexyl-4-{[5-(2,4-difluoro-phenyl)-isoxazole-3-carbonyl]-amino}-piperidine-3-carboxylic acid (2-ethoxy-ethyl)-methyl-amide]
14 | 198 nM | Cc1cc(CNC(=O)[C@@H]2CN(C3CCCCC3)CC[C@H]2NC(=O)c2cc(-c3ccc(F)cc3F)on2)no1 (racemic) [Example 1.022, rac-(3R*,4R*)-1-Cyclohexyl-4-{[5-(2,4-difluoro-phenyl)-isoxazole-3-carbonyl]-amino}-piperidine-3-carboxylic acid (5-methyl-isoxazol-3-ylmethyl)-amide]
15 | 743 nM | CN(C)CCNC(=O)[C@@H]1CN(C2CCCCC2)CC[C@H]1NC(=O)c1cc(-c2ccc(F)cc2F)on1 (racemic) [Example 1.023, rac-(3R*,4R*)-1-Cyclohexyl-4-{[5-(2,4-difluoro-phenyl)-isoxazole-3-carbonyl]-amino}-piperidine-3-carboxylic acid (2-dimethylamino-ethyl)-amide]
16 | 627 nM | O=C(N[C@@H]1CCN(C2CCCCC2)C[C@H]1C(=O)NCC(F)F)c1cc(-c2ccc(F)cc2F)on1 (racemic) [Example 1.026, rac-(3R*,4R*)-1-Cyclohexyl-4-{[5-(2,4-difluoro-phenyl)-isoxazole-3-carbonyl]-amino}-piperidine-3-carboxylic acid (2,2-difluoro-ethyl)-amide]
17 | 117 nM | COCCCN(C)C(=O)[C@@H]1CN(C2CCCCC2)CC[C@H]1NC(=O)c1cc(-c2ccc(F)cc2F)on1 (racemic) [Example 1.027, rac-(3R*,4R*)-1-Cyclohexyl-4-{[5-(2,4-difluoro-phenyl)-isoxazole-3-carbonyl]-amino}-piperidine-3-carboxylic acid (3-methoxy-propyl)-methyl-amide]
18 | 315 nM | Cc1cc(CNC(=O)[C@@H]2CN(C3CCCCC3)CC[C@H]2NC(=O)c2cc(-c3ccc(F)cc3F)on2)on1 (racemic) [Example 1.029, rac-(3R*,4R*)-1-Cyclohexyl-4-{[5-(2,4-difluoro-phenyl)-isoxazole-3-carbonyl]-amino}-piperidine-3-carboxylic acid (3-methyl-isoxazol-5-ylmethyl)-amide]
19 | 855 nM | Cc1nc(CNC(=O)[C@@H]2CN(C3CCCCC3)CC[C@H]2NC(=O)c2cc(-c3ccc(F)cc3F)on2)cs1 (racemic) [Example 1.031, rac-(3R*,4R*)-1-Cyclohexyl-4-{[5-(2,4-difluoro-phenyl)-isoxazole-3-carbonyl]-amino}-piperidine-3-carboxylic acid (2-methyl-thiazol-4-ylmethyl)-amide]
20 | 154 nM | O=C(N[C@@H]1CCN(C2CCCCC2)C[C@H]1C(=O)NCc1ncccn1)c1cc(-c2ccc(F)cc2F)on1 (racemic) [Example 1.032, rac-(3R*,4R*)-1-Cyclohexyl-4-{[5-(2,4-difluoro-phenyl)-isoxazole-3-carbonyl]-amino}-piperidine-3-carboxylic acid (pyrimidin-2-ylmethyl)-amide]
21 | 591 nM | Cc1ncsc1CNC(=O)[C@@H]1CN(C2CCCCC2)CC[C@H]1NC(=O)c1cc(-c2ccc(F)cc2F)on1 (racemic) [Example 1.033, rac-(3R*,4R*)-1-Cyclohexyl-4-{[5-(2,4-difluoro-phenyl)-isoxazole-3-carbonyl]-amino}-piperidine-3-carboxylic acid (4-methyl-thiazol-5-ylmethyl)-amide]
22 | 772 nM | O=C(N[C@@H]1CCN(C2CCCCC2)C[C@H]1C(=O)NCc1ccncn1)c1cc(-c2ccc(F)cc2F)on1 (racemic) [Example 1.034, rac-(3R*,4R*)-1-Cyclohexyl-4-{[5-(2,4-difluoro-phenyl)-isoxazole-3-carbonyl]-amino}-piperidine-3-carboxylic acid (pyrimidin-4-ylmethyl)-amide]
23 | 520 nM | O=C(N[C@@H]1CCN(C2CCCCC2)C[C@H]1C(=O)NCc1cnco1)c1cc(-c2ccc(F)cc2F)on1 (racemic) [Example 1.035, rac-(3R*,4R*)-1-Cyclohexyl-4-{[5-(2,4-difluoro-phenyl)-isoxazole-3-carbonyl]-amino}-piperidine-3-carboxylic acid (oxazol-5-ylmethyl)-amide]
24 | 693 nM | O=C(N[C@@H]1CCN(C2CCCCC2)C[C@H]1C(=O)N1CC(F)C1)c1cc(-c2ccc(F)cc2F)on1 (racemic) [Example 1.036, rac-5-(2,4-Difluoro-phenyl)-isoxazole-3-carboxylic acid [(3R*,4R*)-1-cyclohexyl-3-(3-fluoro-azetidine-1-carbonyl)-piperidin-4-yl]-amide]
25 | 295 nM | O=C(N[C@@H]1CCN(C2CCCCC2)C[C@H]1C(=O)NCc1cnccn1)c1cc(-c2ccc(F)cc2F)on1 (racemic) [Example 1.037, rac-(3R*,4R*)-1-Cyclohexyl-4-{[5-(2,4-difluoro-phenyl)-isoxazole-3-carbonyl]-amino}-piperidine-3-carboxylic acid (pyrazin-2-ylmethyl)-amide]
26 | 490 nM | O=C(N[C@@H]1CCN(C2CCCCC2)C[C@H]1C(=O)NCCOC(F)(F)F)c1cc(-c2ccc(F)cc2F)on1 (racemic) [Example 1.038, rac-(3R*,4R*)-1-Cyclohexyl-4-{[5-(2,4-difluoro-phenyl)-isoxazole-3-carbonyl]-amino}-piperidine-3-carboxylic acid (2-trifluoromethoxy-ethyl)-amide]
27 | 492 nM | CN(CC1COC1)C(=O)[C@@H]1CN(C2CCCCC2)CC[C@H]1NC(=O)c1cc(-c2ccc(F)cc2F)on1 (racemic) [Example 1.039, rac-(3R*,4R*)-1-Cyclohexyl-4-{[5-(2,4-difluoro-phenyl)-isoxazole-3-carbonyl]-amino}-piperidine-3-carboxylic acid methyl-oxetan-3-ylmethyl-amide]
